Patent US8088806B2 (Achillion Pharmaceuticals, Inc., priority 2005, dated 2012)

Each compound was assayed on HCV replicon (assay: Replicon based assay of HCV replication inhibition (NPT ELISA)). Conditions: Hepatitis C virus, Huh-7, 72 h, Table I; Huh-7 HCV replicon-containing cells, three days; read-out: Activity.
Type: cell-based, Hepatitis C virus
In short: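 NPT (neomycin phosphotransferase) content, proportional to replicon replication, quantified by capture ELISA on day four. Before that, replicon-bearing Huh-7 cells in G418-free screening medium were exposed three days at 37° C to compound, typically six doses from 10 to 0.03 micromolar, with equal DMSO across wells.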
Cc1nccc(-c2cccc(Nc3nc(-c4cccnc4)cs3)c2)n1 [compound 105, N-(3-(2-methylpyrimidin-4-yl)phenyl)-4-(pyridin-3-yl)thiazol-2-amine] gave an EC50 greater than 10 µM. CC(C)N(c1ccccc1)c1ccc(Nc2nc(-c3cccnc3)cs2)cc1 [compound 106, N1-isopropyl-N1-phenyl-N4-(4-(pyridin-3-yl)thiazol-2-yl)benzene-1,4-diamine] gave an EC50 greater than 10 µM. In the case of CCCCOC(=O)c1ccc(Nc2nc(-c3cccnc3)cs2)cc1 [compound 107, butyl 4-(4-(pyridin-3-yl)thiazol-2-ylamino)benzoate], the EC50 is reported as greater than 10 µM. CCOC(=O)C1CCN(Cc2cccc(Nc3nc(-c4cccnc4)cs3)c2)CC1 [compound 108, ethyl 1-(3-(4-(pyridin-3-yl)thiazol-2-ylamino)benzyl)piperidine-4-carboxylate] showed an EC50 greater than 10 µM. For CCOC(=O)Cc1ccc(Nc2nc(-c3cccnc3)cs2)cc1 [compound 109, ethyl 2-(4-(4-(pyridin-3-yl)thiazol-2-ylamino)phenyl)acetate], the EC50 was greater than 10 µM. CCCc1ccc(Nc2nc(-c3cccnc3)cs2)cc1 [compound 110, N-(4-propylphenyl)-4-(pyridin-3-yl)thiazol-2-amine] was tested, and the EC50 was greater than 10 µM. Compound CC(C)(C)c1ccc(NC(=O)c2nc(-c3cccnc3)cs2)cc1 [compound 111, N-(4-tert-butylphenyl)-4-(pyridin-3-yl)thiazole-2-carboxamide] has an EC50 greater than 10 µM. With CCCCCOc1ccc(NC(=O)c2nc(-c3cccnc3)cs2)cc1C(F)(F)F [compound 112, N-(3-(trifluoromethyl)-4-(pentyloxy)phenyl)-4-(pyridin-3-yl)thiazole-2-carboxamide] the EC50 was greater than 10 µM. Compound CCCCCOc1ccc(NC(=O)c2nc(-c3cccnc3)cs2)cc1 [compound 113, N-(4-(pentyloxy)phenyl)-4-(pyridin-3-yl)thiazole-2-carboxamide] has an EC50 greater than 10 µM. Work on O=C(Nc1ccc(OCc2ccccc2)cc1)c1nc(-c2cccnc2)cs1 [compound 114] yielded an EC50 greater than 10 µM. In the case of O=C(Nc1ccc(Oc2ccc(Cl)cc2)cc1)c1nc(-c2cccnc2)cs1 [compound 115, N-(4-(4-chlorophenoxy)phenyl)-4-(pyridin-3-yl)thiazole-2-carboxamide], the EC50 is reported as greater than 10 µM. In the case of CCCCCOc1ccc(N(C(C)=O)c2nc(-c3ccc(F)cc3)cs2)cc1C(F)(F)F [compound 116, N-(3-(trifluoromethyl)-4-(pentyloxy)phenyl)-N-(4-(4-fluorophenyl)thiazol-2-yl)acetamide], the EC50 is reported as less than 1 µM. Compound CCCCCOc1ccc(Nc2ncc(-c3ccccc3)s2)cc1C(F)(F)F [compound 117, N-(3-(trifluoromethyl)-4-(pentyloxy)phenyl)-5-phenylthiazol-2-amine] has an EC50 of less than 1 µM. For Fc1ccc(Nc2nc(C(F)(F)F)c(-c3cccc(Cl)c3)s2)cc1 [compound 118, 5-(3-chlorophenyl)-4-(trifluoromethyl)-N-(4-fluorophenyl)thiazol-2-amine], the EC50 was greater than 10 µM. Compound COc1ccc(Nc2nc(-c3ccccc3)c(-c3ccccc3)s2)cc1 [compound 119, N-(4-methoxyphenyl)-4,5-diphenylthiazol-2-amine] has an EC50 of less than 1 µM. Compound CCN(CC)S(=O)(=O)c1ccc(-c2csc(Nc3ccc(Br)cc3)n2)cc1 [compound 120, N-(4-bromophenyl)-4-diethylaminosulfonyl-phenyl-2-amine] has an EC50 greater than 10 µM. Work on COc1ccc(Nc2nc(-c3ccc(OCc4ccc(Br)cc4)cc3)cs2)cc1 [compound 122, 4-(4-(4-bromobenzyloxy)phenyl)-N-(4-methoxyphenyl)thiazol-2-amine] yielded an EC50 greater than 10 µM. O=C(Nc1ccc(Cl)c(Cl)c1)c1nc(-c2cccnc2)cs1 [compound 123, N-(3,4-dichlorophenyl)-4-(pyridin-3-yl)thiazole-2-carboxamide] gave an EC50 greater than 10 µM. CN(C(=O)c1nc(-c2cccnc2)cs1)c1ccc(Cl)c(Cl)c1 [compound 124, N-(3,4-dichlorophenyl)-N-methyl-4-(pyridin-3-yl)thiazole-2-carboxamide] gave an EC50 greater than 10 µM. O=C(Nc1ccc(Cl)c(Cl)c1)c1csc(-c2cccnc2)n1 [compound 125, N-(3,4-dichlorophenyl)-2-(pyridin-3-yl)thiazole-4-carboxamide] showed an EC50 greater than 10 µM. Compound CN(C(=O)c1csc(-c2cccnc2)n1)c1ccc(Cl)c(Cl)c1 [compound 126, N-(3,4-dichlorophenyl)-N-methyl-2-(pyridin-3-yl)thiazole-4-carboxamide] has an EC50 greater than 10 µM. For CCCCCOc1ccc(NC(=O)c2csc(-c3cccnc3)n2)cc1C(F)(F)F [compound 127, N-(3-(trifluoromethyl)-4-(pentyloxy)phenyl)-2-(pyridin-3-yl)thiazole-4-carboxamide], the EC50 was greater than 10 µM. Work on CCCCCOc1ccc(Nc2nc(C(=O)Nc3ccc(Cl)c(Cl)c3)cs2)cc1C(F)(F)F [compound 128, 2-(3-(trifluoromethyl)-4-(pentyloxy)phenylamino)-N-(3,4-dichlorophenyl)thiazole-4-carboxamide] yielded an EC50 of 1 to 10 µM. Compound CCCCCOc1ccc(Nc2nc(C(=O)N(C)c3ccc(Cl)c(Cl)c3)cs2)cc1C(F)(F)F [compound 129, 2-(3-(trifluoromethyl)-4-(pentyloxy)phenylamino)-N-(3,4-dichlorophenyl)-N-methylthiazole-4-carboxamide] has an EC50 greater than 10 µM. Compound CCCCCOc1ccc(Nc2ncc(C(=O)OC)s2)cc1C(F)(F)F [compound 130, methyl 2-(3-(trifluoromethyl)-4-(pentyloxy)phenylamino)thiazole-5-carboxylate] has an EC50 greater than 10 µM. With CCCCCOc1ccc(Nc2nc(-c3ccc(O)c(C(N)=O)c3)cs2)cc1C(F)(F)F [compound 131, 5-(2-(3-(trifluoromethyl)-4-(pentyloxy)phenylamino)thiazol-4-yl)-2-hydroxybenzamide] the EC50 was less than 1 µM. Compound CCCCCOc1ccc(Nc2nc(-c3ccc(C#N)cc3)cs2)cc1C(F)(F)F [compound 132, 4-(2-(3-(trifluoromethyl)-4-(pentyloxy)phenylamino)thiazol-4-yl)benzonitrile] has an EC50 of less than 1 µM. CCCCCOc1ccc(Nc2nc(-c3ccc(F)c(F)c3)cs2)cc1C(F)(F)F [compound 133, N-(3-(trifluoromethyl)-4-(pentyloxy)phenyl)-4-(3,4-difluorophenyl)thiazol-2-amine] gave an EC50 of less than 1 µM. Work on CCCCCOc1ccc(Nc2nc(-c3ccc(OC)cc3)cs2)cc1C(F)(F)F [compound 134, N-(3-(trifluoromethyl)-4-(pentyloxy)phenyl)-4-(4-methoxyphenyl)thiazol-2-amine] yielded an EC50 of less than 1 µM. CCCCCOc1ccc(Nc2nc(-c3ccc(Cl)cc3)c(-c3ccccc3)s2)cc1C(F)(F)F [compound 135, 4-(4-chlorophenyl)-N-(3-(trifluoromethyl)-4-(pentyloxy)phenyl)-5-phenylthiazol-2-amine] was tested, and the EC50 was greater than 10 µM. Work on CCCCCOc1ccc(Nc2nc(C(C)=O)c(C)s2)cc1C(F)(F)F [compound 136, 1-(2-(3-(trifluoromethyl)-4-(pentyloxy)phenylamino)-5-methylthiazol-4-yl)ethanone] yielded an EC50 greater than 10 µM. CCCCCOc1ccc(Nc2nc(-c3ccc(OCC(=O)O)cc3)c(C)s2)cc1C(F)(F)F [compound 137, 2-(4-(2-(3-(trifluoromethyl)-4-(pentyloxy)phenylamino)-5-methylthiazol-4-yl)phenoxy)acetic acid] showed an EC50 of less than 1 µM. CCCCCOc1ccc(Nc2nc(-c3ccc(OCC(=O)OCC)cc3)c(C)s2)cc1C(F)(F)F [compound 139, ethyl 2-(4-(2-(3-(trifluoromethyl)-4-(pentyloxy)phenylamino)-5-methylthiazol-4-yl)phenoxy)acetate] showed an EC50 of less than 1 µM. CCCCCOc1ccc(N(C(=O)c2cccnc2)c2nc(NC(=O)c3cccnc3)cs2)cc1C(F)(F)F [compound 140, N-(2-(N-(3-(trifluoromethyl)-4-(pentyloxy)phenyl)nicotinamido)-thiazol-4-yl)nicotinamide] gave an EC50 of less than 1 µM. Work on c1ccc(Oc2ccc(Nc3nc(-c4cccnc4)cs3)cc2)cc1 [compound 141, N-(4-phenoxyphenyl)-4-(pyridin-3-yl)thiazol-2-amine] yielded an EC50 of less than 1 µM. Work on Clc1ccc(-c2csc(NC3=NN(c4ccccc4)CC3)n2)cc1 [compound 142, N-(4-(4-chlorophenyl)thiazol-2-yl)-4,5-dihydro-1-phenyl-1H-pyrazol-3-amine] yielded an EC50 greater than 10 µM. c1ccc(N2CCC(Nc3nc(-c4cccnc4)cs3)=N2)cc1 [compound 143, 4,5-dihydro-1-phenyl-N-(4-(pyridin-3-yl)thiazol-2-yl)-1H-pyrazol-3-amine] gave an EC50 greater than 10 µM. For Fc1ccc(-c2csc(Nc3ccc(Oc4ccccc4)cc3)n2)cc1 [compound 144, 4-(4-fluorophenyl)-N-(4-phenoxyphenyl)thiazol-2-amine], the EC50 was less than 1 µM. Fc1ccc(-c2csc(Nc3nc(-c4ccc(Cl)cc4)cs3)n2)cc1 [compound 145, 4-(4-chlorophenyl)-N-(4-(4-fluorophenyl)thiazol-2-yl)thiazol-2-amine] showed an EC50 greater than 10 µM. Fc1ccc(-c2csc(NC3=NN(c4ccccc4)CC3)n2)cc1 [compound 146, N-(4-(4-fluorophenyl)thiazol-2-yl)-4,5-dihydro-1-phenyl-1H-pyrazol-amine] showed an EC50 greater than 10 µM. Work on CCOC(=O)Cc1csc(Nc2nc(-c3ccc(Cl)cc3)cs2)n1 [compound 147, ethyl 2-(2-(4-(4-chlorophenyl)thiazol-2-ylamino)thiazol-4-yl)acetate] yielded an EC50 greater than 10 µM. CCCCCOc1ccc(Nc2ncc(C(=O)O)s2)cc1C(F)(F)F [compound 148, 2-(3-(trifluoromethyl)-4-(pentyloxy)phenylamino)thiazole-5-carboxylic acid] showed an EC50 greater than 10 µM. With CCCCCOc1ccc(Nc2ncc(C(=O)Nc3ccc(Cl)cc3)s2)cc1C(F)(F)F [compound 149, 2-(3-(trifluoromethyl)-4-(pentyloxy)phenylamino)-N-(4-chlorophenyl)thiazole-5-carboxamide] the EC50 was less than 1 µM. For CCCCCOc1ccc(Nc2ncc(C(=O)Nc3ccc(C#N)cc3)s2)cc1C(F)(F)F [compound 150, 2-(3-(trifluoromethyl)-4-(pentyloxy)phenylamino)-N-(4-cyanophenyl)thiazole-5-carboxamide], the EC50 was less than 1 µM.
